This note sets out measurements from US5037739A, “N-acetylmannosamine dehydrogenase, process for its production, method for quantitatively analyzing N-acetylmannosamine or sialic acid, and kit for the quantitative analysis” (Noda Institute for Scientific Research, priority 1986, dated 1991).

Data set [1] is described as follows: pH stability and heat stability (inactivation conditions) of N-AMDH. Type of data set: physicochemical, Flavobacterium sp. No. 141-8. The protocol: The buffer solutions used there are potassium phosphate buffer, tris-hydrochloric acid buffer and glycine-sodium hydroxide buffer.
At temperatures exceeding 45° C., it rapidly loses its activity. When heat treated at 45° C. for 10 minutes, it is stable at a pH of 8.5-9.5, while it is particularly instable at a pH value of 7 or below.

Data set [2] is described as follows: Acrylamide gel isoelectric focusing of N-AMDH. Type of data set: physicochemical, Flavobacterium sp. No. 141-8. From the text:
As measured by acrylamide gel isoelectric focusing, its isoelectric point is 4.9.

For data set [3], the system named is Flavobacterium sp. No. 141-8. Nature of the data set: Growth resistance of the producing strain (penicillin, sodium chloride). Type of data set: cell-based. From the text:
(1) Penicillin resistance: Growth even at 100 units/ml.
(2) Sodium chloride resistance: No growth above 2%.

The target of data set [4] is T1, N-AMDH (Flavobacterium sp., UniProt P22441).
T1 construct: N-AMDH was accumulated in the bacterial cells; endogenous in cells; host or cells: Flavobacterium sp; No. 141-8 (natural producer isolated from soil); enzyme purified from the disrupted bacterial cells
T1 sequence (P22441 2-271 limits assumed): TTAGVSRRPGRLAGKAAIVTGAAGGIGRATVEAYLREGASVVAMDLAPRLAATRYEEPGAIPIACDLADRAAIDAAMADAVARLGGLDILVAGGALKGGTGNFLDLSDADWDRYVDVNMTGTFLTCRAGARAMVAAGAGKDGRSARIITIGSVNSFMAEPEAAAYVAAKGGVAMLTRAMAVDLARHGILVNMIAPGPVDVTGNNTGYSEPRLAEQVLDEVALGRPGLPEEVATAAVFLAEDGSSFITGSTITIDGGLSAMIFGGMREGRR
Nature of the data set: N-AMDH enzymatic activity in solutions containing metallic ions and inhibitors. The note with it: for remaining activity at 2000 µM: read-out: Residual activity (%). The class given is biochemical, Flavobacterium sp. No. 141-8. The protocol:
The table presented above illustrates the enzymatic activity of N-AMDH measured in solutions containing various metallic ions and inhibitors at a concentration of 2 mM. There is known no substance making a particular contribution to its activation and stabilization.
(§1) To 1.8 ml of 0.05M tris-hydrochloric acid buffer (pH 8.2) is added 0.1 ml of 60 mM NAD solution. After keeping the mixture at 37° C. for 10 minutes, 10 microliters of enzyme solution is added, and then 0.1 ml of 0.3M N-AM is added. By homogenizing the mixture, the reaction is started. The reaction mixture is immediately transferred into a light absorbance measurement cell (light path 1 cm) kept at 37° C., and absorbance is measured over a period of 5 minutes (if necessary, over a longer period of time) at intervals of one minute at a wavelength of 340 nm. A quantity of enzyme capable of forming 1 micromole of NADH in one minute is taken as one unit.

In data set [5] the target is T1, N-AMDH. Nature of the data set: Action and substrate-specificity of N-AMDH (substrates and electron acceptors). The class given is biochemical, Flavobacterium sp. No. 141-8. The note with it: for Action of N-AMDH upon the sugar as substrate: in the presence of NAD. The protocol:
In the presence of water, N-acetylmannosaminolactone is spontaneously hydrolyzed to form N-acetylmannosaminic acid. Accordingly, the reaction is substantially irreversible.
as §1

Setting [6] is: heat treated at 45° C. for 10 minutes.
The mark [7] stands for this setting: N-AMDH activity with metallic ion or inhibitor at 2 mM, None = 100.

Where two headings read alike, the source gives them in different places.

With “N-acetylmannosamine dehydrogenase [N-AMDH]”, in data set [1] (FIG. 4, heat treated for minutes), the “Temperature up to which activity is kept stable on heat treatment” value is at most 45 °C. In data set [1] (setting [6]), the “pH at which it is particularly instable when heat treated” value is at most 7 and the “pH at which it is stable when heat treated” value is 8.5-9.5. In data set [2], this compound displayed an Isoelectric point of 4.9.
Regarding `CC1(C)S[C@@H]2[C@H](NC(=O)Cc3ccccc3)C(=O)N2[C@H]1C(=O)O` [Penicillin], the “Penicillin resistance: concentration at which the strain still grows” value in data set [3] was at least 100 units/ml.
`O=C(O)CN(CCN(CC(=O)O)CC(=O)O)CC(=O)O` [EDTA]: the remaining activity at 2000 µM in data set [4] stood at 89%.
Take `O=C(CO)N[C@@H]1C(O)O[C@H](CO)[C@@H](O)[C@@H]1O` (stereo partly shown) [N-glycolylmannosamine]: the “Action of N-AMDH upon the sugar as substrate” value (from here on “Action”) in data set [5] is given as “acts upon N-glycolylmannosamine in the same manner as above”.
Turning to `CCCCCCCCCCCCOS(=O)(=O)O` [SDS], the remaining activity at 2000 µM in data set [4] (setting [7]) came out at 18%.
With `CC(=O)N[C@@H]1C(O)O[C@H](CO)[C@@H](O)[C@@H]1O` (stereo partly shown) [N-AM, N-acetylmannosamine], the “Action” value in data set [5] was “oxidizes N-AM into N-acetylmannoaminolactone”.
As for `[Cl-].[Na+]` [Sodium chloride], in data set [3], the “Sodium chloride resistance: concentration above which there is no growth” value was “above 2%”.
Take `Nc1ncnc2c1ncn2[C@@H]1O[C@H](COP(=O)(O)O)[C@@H](O)[C@H]1O` [5'-AMP]: in data set [4] (setting [7]), the remaining activity at 2000 µM is 76%.
With `[N-]=[N+]=[N-].[Na+]` [NaN3], the “Residual activity (%)” value in data set [4] (setting [7]) stood at 83%.
Take `Oc1cccc2cccnc12` [8-Hydroxyquinoline]: the “Residual activity (%)” value in data set [4] is 95%.
With `O=S(=O)([O-])[O-].[Ni+2]` [NiSO4], the “Residual activity (%)” value in data set [4] (setting [7]) was determined as 69%.
For `c1cnc2c(c1)ccc1cccnc12` [o-Phenanthroline], the remaining activity at 2000 µM in data set [4] (setting [7]) amounted to 87%.
Regarding `O=C1C(Cl)=CC(=Nc2ccc(O)cc2)C=C1Cl` [2,6-dichlorophenol indophenol], the “Utilization as electron acceptor by N-AMDH” value in data set [5] is listed as “hardly utilizes”.
On to `O=C(O)c1cc[c]([Hg][Cl])cc1` [PCMB], for which the “Residual activity (%)” value in data set [4] (setting [7]) is 95%.
As to `O=S(=O)([O-])[O-].[Zn+2]` [ZnSO4], in data set [4] (setting [7]), the “Residual activity (%)” value came out at 71%.
Take `O=S(=O)([O-])[O-].[Cu+2]` [CuSO4]: in data set [4] (setting [7]), the “Residual activity (%)” value came out at 79%.
For the compound `CC(=O)N[C@H]1C(O)O[C@H](CO)[C@H](O)[C@@H]1O` (stereo partly shown) [N-acetylgalactosamine], the “Action” value in data set [5] is “hardly acts or does not act at all”.
`NC(=O)CI` [Iodoacetamide]: the remaining activity at 2000 µM in data set [4] (setting [7]) was found to be 87%.
On to `NC(=O)c1ccc[n+]([C@@H]2O[C@H](COP(=O)([O-])OP(=O)(O)OC[C@H]3O[C@@H](n4cnc5c(N)ncnc54)[C@H](OP(=O)(O)O)[C@@H]3O)[C@@H](O)[C@H]2O)c1` [NADP, nicotinamide adenine dinucleotide phosphate], for which the “Utilization as electron acceptor by N-AMDH” value in data set [5] is on record as “hardly utilizes”.
On to `c1ccc(-c2ccccn2)nc1` [α,α'-Dipyridyl], for which, in data set [4] (setting [7]), the remaining activity at 2000 µM stood at 97%.
Consider `CC(=O)N[C@H]1C(O)O[C@H](CO)[C@@H](O)[C@@H]1O` (stereo partly shown) [N-acetylglucosamine], for which the “Action” value in data set [5] is “hardly acts or does not act at all”.
In the case of `[Cl][Hg][Cl]` [HgCl2], in data set [4] (setting [7]), the “Residual activity (%)” value was 6%.
